Entries after “also recorded” stand apart in the source; their conditions may differ. Non-standard residues stand in square brackets, D forms with d. Residues, ends and D or L forms follow the SMILES beside them. *: point of attachment. Dolaproine = CO[C@@H]([C@@H]1CCCN1)[C@@H](C)C(=O)O; Dil = CC[C@H](C)[C@H](NC)[C@@H](CC(=O)O)OC; X2 = C[C@@H](N*)[C@@H](O)c1ccccc1; NMeV = CN[C@H](C(=O)O)C(C)C
Key:
[1] = Chronic toxicity study, intravenous once every 3 weeks, rats; format: in vivo
Text: (§1) Chronic toxicity study of Conjugate (1) product on Rats and rabbits.
(§2) • 1. Conjugate (I). • 2. Solubilizer Pluronic F127—in the amount, five-fold greater than the conjugate amount by weight. • 3. Diluent—Haemodes infusion solution. • 4. Dimethyl sulfoxide—in the amount of 5% of the prepared volume.
(§3) A 1 00 white ° inbred mature male rats about 2 months old with a body weight of 190-210 g and 60 sexually mature male rabbits of the Soviet Chinchilla breed about 2 months old with a body weight of […] were involved in the experiment.
(§4) The study design determined the intravenous administration of the test drugs once every 3 weeks for 3 months (a total of 4 injections) for the experiment of chronic toxicity determination. The local irritant effect of the products within intravenous administration will be studied together with the chronic toxicity study.
(§5) Each animal received the intravenous injection of the test drug or the reference drug in a volume not exceeding the acceptable volume for a single injection of 2 mL for rats and 20 mL for rabbits. The products were replaced with a Pluronic solution with DMSO in Haemodes in the control group of animals. The duration of observation for laboratory animals was 4 weeks (intermediate stage).
(§6) Apparent signs of intoxication were evaluated daily. During the study, integral indicators of animal health were recorded (see Tables 15. 16, 17).

[2] = Chronic toxicity study, intravenous once every 3 weeks, rabbits; format: in vivo
Text: as §1, §2, §3, §4, §5, §6

CC[C@H](C)[C@@H]([C@@H](CC(=O)N1CCC[C@H]1[C@H](OC)[C@@H](C)C(=O)N[C@H](C)[C@@H](O)c1ccccc1)OC)N(C)C(=O)[C@@H](NC(=O)[C@@H](NC)C(C)C)C(C)C [MMAE, Monomethyl auristatin E] (H-[NMeV]V[Dil][Dolaproine]-X2)
Signs of intoxication ([1]; male rats, group 5, 10 μg/kg intravenously 1 time in 3 weeks): with impaired movement; also recorded: coordination, shortness of breath,; also recorded: diarrhea; also recorded: position, tremor, the hind limb; also recorded: the hindlimb paresis; rats No. 3-5 -; also recorded: decreased motor activity, the hind; also recorded: hindlimb paresis, porphyrin secretion | Signs of intoxication: loss of body weight ([1]; male rats, group 5, 10 μg/kg, 30 Apr. 2019): 15 to 20 g | Necropsy ([1]; male rats, group 5, 10 μg/kg, animals No. 1, 5, 6 and No. 3): severely inflated; adrenal glands were 2-fold; also recorded: increase; blood in the kidneys, pink renal pelvis; also recorded: hemorrhages and ulcers; the kidneys were pale,; also recorded: liver was granular, palish | Animals survived up to the second injection ([1]; rats, chronic, reference drug): only one rat animal | Chronic toxicity (overall) ([1]; rats, i.v. once every 3 weeks, intermediate stage 4 weeks): high toxicity | Signs of intoxication: the intake of feed and water ([2]; male rabbits, group 10, 5.4 μg/kg, after administration): decreased. About a day after | Signs of intoxication ([2]; male rabbits, group 10, 5.4 μg/kg, about a day after administration and before death): superficial respiration and adynamia | Necropsy ([2]; male rabbits, group 10, 5.4 μg/kg, rabbit No. 4): grayish tint; thymus had hemorrhages; | Animals survived up to the second injection ([2]; rabbits, chronic, reference drug): no rabbits | Chronic toxicity (overall) ([2]; rabbits, i.v. once every 3 weeks, intermediate stage 4 weeks): high toxicity
